Reference: the kinase profiling compilation of Christmann-Franck et al. (2016)

The molecules below were run against NTRK1 (human) (UniProt P04629) (assay: radiometric filter-binding kinase assay, Kinase HotSpot). Details: compound 0.5 µM; ATP 10 µM.

Compound | residual activity [%]
CCCCc1c(-c2ccc(O)cc2)[nH]c2nccnc12 | 99.6
O=S(=O)(NCCNC/C=C/c1ccc(Br)cc1)c1cccc2cnccc12 | 84.9
Nc1ncnc2c1cnn2-c1ccccc1 | 96.1

The molecules below were run against DYRK1A (human) (UniProt Q13627) in the same assay as above. Details: compound 0.5 µM; ATP 10 µM.

Compound | residual activity [%]
O=c1c(-c2ccc(F)cc2)c(-c2ccncc2)[nH]n1-c1ccc(Cl)cc1 | 89.8
CCCCc1c(-c2ccc(O)cc2)[nH]c2nccnc12 | 92.9
O=S(=O)(NCCNC/C=C/c1ccc(Br)cc1)c1cccc2cnccc12 | 98.5
Nc1ncnc2c1cnn2-c1ccccc1 | 96.8

What follows are molecules tested against FGR (human) (UniProt P09769) in the same assay as above. Details: compound 0.5 µM; ATP 10 µM.

Compound | residual activity [%]
CN[C@@H]1C[C@H]2O[C@@](C)([C@@H]1OC)n1c3ccccc3c3c4c(c5c6ccccc6n2c5c31)C(=O)NC4 | 0.266
O=c1c(-c2ccc(F)cc2)c(-c2ccncc2)[nH]n1-c1ccc(Cl)cc1 | 87.4
CCCCc1c(-c2ccc(O)cc2)[nH]c2nccnc12 | 63
O=S(=O)(NCCNC/C=C/c1ccc(Br)cc1)c1cccc2cnccc12 | 106
Nc1ncnc2c1cnn2-c1ccccc1 | 93.8

These molecules were tested on SGK1 (human), O00141 [S422D] in the same assay as above. Details: compound 0.5 µM; ATP 10 µM.

Compound | residual activity [%]
O=c1c(-c2ccc(F)cc2)c(-c2ccncc2)[nH]n1-c1ccc(Cl)cc1 | 97.3
CCCCc1c(-c2ccc(O)cc2)[nH]c2nccnc12 | 88.1
O=S(=O)(NCCNC/C=C/c1ccc(Br)cc1)c1cccc2cnccc12 | 93.2
Nc1ncnc2c1cnn2-c1ccccc1 | 90.9

Each molecule was assayed against TAOK1 (human) (UniProt Q7L7X3) in the same assay as above. Details: compound 0.5 µM; ATP 10 µM.

Compound | residual activity [%]
O=c1c(-c2ccc(F)cc2)c(-c2ccncc2)[nH]n1-c1ccc(Cl)cc1 | 102
CCCCc1c(-c2ccc(O)cc2)[nH]c2nccnc12 | 70.9
O=S(=O)(NCCNC/C=C/c1ccc(Br)cc1)c1cccc2cnccc12 | 101
Nc1ncnc2c1cnn2-c1ccccc1 | 89.5

Each molecule was assayed against TEC (human) (UniProt P42680) in the same assay as above. Details: compound 0.5 µM; ATP 10 µM.

Compound | residual activity [%]
O=c1c(-c2ccc(F)cc2)c(-c2ccncc2)[nH]n1-c1ccc(Cl)cc1 | 112
CCCCc1c(-c2ccc(O)cc2)[nH]c2nccnc12 | 87.3
O=S(=O)(NCCNC/C=C/c1ccc(Br)cc1)c1cccc2cnccc12 | 102
Nc1ncnc2c1cnn2-c1ccccc1 | 103

The molecules below were run against EPHA5 (human) (UniProt P54756) in the same assay as above. Details: compound 0.5 µM; ATP 10 µM.
EPHA5 (human), sequence (P54756 whole entry, looked up): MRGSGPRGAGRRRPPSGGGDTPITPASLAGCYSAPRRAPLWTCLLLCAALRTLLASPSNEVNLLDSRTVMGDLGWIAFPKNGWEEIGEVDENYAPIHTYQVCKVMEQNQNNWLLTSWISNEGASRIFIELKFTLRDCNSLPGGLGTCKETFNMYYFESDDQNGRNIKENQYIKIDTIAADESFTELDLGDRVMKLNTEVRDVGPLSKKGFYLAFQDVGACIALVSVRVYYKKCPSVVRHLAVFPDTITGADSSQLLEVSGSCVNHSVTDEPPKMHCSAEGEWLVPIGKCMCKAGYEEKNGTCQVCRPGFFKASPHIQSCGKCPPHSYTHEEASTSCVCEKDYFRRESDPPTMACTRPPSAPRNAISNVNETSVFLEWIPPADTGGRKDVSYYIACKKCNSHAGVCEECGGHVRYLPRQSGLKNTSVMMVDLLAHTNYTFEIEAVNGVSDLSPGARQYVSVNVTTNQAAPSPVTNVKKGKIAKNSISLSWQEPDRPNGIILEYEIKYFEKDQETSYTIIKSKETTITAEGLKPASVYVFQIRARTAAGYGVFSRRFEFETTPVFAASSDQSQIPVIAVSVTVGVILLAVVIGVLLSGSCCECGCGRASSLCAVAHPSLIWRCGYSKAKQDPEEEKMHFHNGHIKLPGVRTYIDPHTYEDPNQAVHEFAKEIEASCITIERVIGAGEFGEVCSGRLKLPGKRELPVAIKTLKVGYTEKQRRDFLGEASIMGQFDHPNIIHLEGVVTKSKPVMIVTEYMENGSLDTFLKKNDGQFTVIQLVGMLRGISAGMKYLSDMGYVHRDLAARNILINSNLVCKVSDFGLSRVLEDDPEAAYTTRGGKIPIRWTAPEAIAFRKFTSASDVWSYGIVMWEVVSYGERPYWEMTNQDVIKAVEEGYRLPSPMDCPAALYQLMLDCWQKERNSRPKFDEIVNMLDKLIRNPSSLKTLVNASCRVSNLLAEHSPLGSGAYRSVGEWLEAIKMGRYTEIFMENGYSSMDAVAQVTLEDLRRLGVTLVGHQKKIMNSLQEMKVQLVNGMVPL

Compound | residual activity [%]
O=c1c(-c2ccc(F)cc2)c(-c2ccncc2)[nH]n1-c1ccc(Cl)cc1 | 106
CCCCc1c(-c2ccc(O)cc2)[nH]c2nccnc12 | 96.4
O=S(=O)(NCCNC/C=C/c1ccc(Br)cc1)c1cccc2cnccc12 | 96.9
Nc1ncnc2c1cnn2-c1ccccc1 | 95.6

What follows are molecules tested against MARK4 (human) (UniProt Q96L34) in the same assay as above. Details: compound 0.5 µM; ATP 10 µM.
MARK4 (human), sequence (Q96L34 whole entry, looked up): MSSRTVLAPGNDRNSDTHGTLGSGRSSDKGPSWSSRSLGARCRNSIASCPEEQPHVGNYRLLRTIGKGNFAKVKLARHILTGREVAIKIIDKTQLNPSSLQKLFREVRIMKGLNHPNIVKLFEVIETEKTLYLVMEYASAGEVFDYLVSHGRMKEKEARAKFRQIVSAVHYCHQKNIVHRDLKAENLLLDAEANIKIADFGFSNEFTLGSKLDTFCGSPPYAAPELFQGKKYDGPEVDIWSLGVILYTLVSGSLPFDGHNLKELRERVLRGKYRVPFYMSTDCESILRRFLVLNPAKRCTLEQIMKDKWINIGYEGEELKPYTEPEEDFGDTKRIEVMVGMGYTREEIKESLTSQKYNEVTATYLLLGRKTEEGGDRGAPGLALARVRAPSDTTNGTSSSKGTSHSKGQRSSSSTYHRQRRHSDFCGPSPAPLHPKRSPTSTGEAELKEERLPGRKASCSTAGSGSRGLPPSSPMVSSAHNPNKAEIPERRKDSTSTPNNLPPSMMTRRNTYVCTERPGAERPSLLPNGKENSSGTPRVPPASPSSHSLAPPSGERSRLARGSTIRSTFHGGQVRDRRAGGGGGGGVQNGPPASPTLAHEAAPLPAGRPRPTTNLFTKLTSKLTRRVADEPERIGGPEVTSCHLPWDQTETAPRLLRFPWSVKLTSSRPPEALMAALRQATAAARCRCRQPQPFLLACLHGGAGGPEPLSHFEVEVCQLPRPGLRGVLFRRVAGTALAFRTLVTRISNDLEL

Compound | residual activity [%]
CN[C@@H]1C[C@H]2O[C@@](C)([C@@H]1OC)n1c3ccccc3c3c4c(c5c6ccccc6n2c5c31)C(=O)NC4 | -0.0069
O=c1c(-c2ccc(F)cc2)c(-c2ccncc2)[nH]n1-c1ccc(Cl)cc1 | 80
CCCCc1c(-c2ccc(O)cc2)[nH]c2nccnc12 | 84.6
O=S(=O)(NCCNC/C=C/c1ccc(Br)cc1)c1cccc2cnccc12 | 94.3
Nc1ncnc2c1cnn2-c1ccccc1 | 89.7

These molecules were tested against STK16 (human) (UniProt O75716) in the same assay as above. Details: compound 0.5 µM; ATP 10 µM.
STK16 (human), sequence (O75716 whole entry, looked up): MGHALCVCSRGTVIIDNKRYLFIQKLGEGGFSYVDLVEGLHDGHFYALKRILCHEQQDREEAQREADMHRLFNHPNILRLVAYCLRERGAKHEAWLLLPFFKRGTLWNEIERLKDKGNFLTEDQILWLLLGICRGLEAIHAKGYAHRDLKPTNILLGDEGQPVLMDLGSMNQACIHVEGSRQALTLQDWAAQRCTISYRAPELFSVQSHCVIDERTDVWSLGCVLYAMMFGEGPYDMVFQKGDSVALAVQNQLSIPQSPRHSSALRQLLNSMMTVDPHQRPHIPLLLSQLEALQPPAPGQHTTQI

Compound | residual activity [%]
O=c1c(-c2ccc(F)cc2)c(-c2ccncc2)[nH]n1-c1ccc(Cl)cc1 | 100
CCCCc1c(-c2ccc(O)cc2)[nH]c2nccnc12 | 55.4
O=S(=O)(NCCNC/C=C/c1ccc(Br)cc1)c1cccc2cnccc12 | 94.4
Nc1ncnc2c1cnn2-c1ccccc1 | 94.3

The molecules below were run against PRKCG (human) (UniProt P05129) in the same assay as above. Details: compound 0.5 µM; ATP 10 µM.

Compound | residual activity [%]
O=c1c(-c2ccc(F)cc2)c(-c2ccncc2)[nH]n1-c1ccc(Cl)cc1 | 101
CCCCc1c(-c2ccc(O)cc2)[nH]c2nccnc12 | 95.1
O=S(=O)(NCCNC/C=C/c1ccc(Br)cc1)c1cccc2cnccc12 | 83.8
Nc1ncnc2c1cnn2-c1ccccc1 | 103

The molecules below were run against CSNK1G3 (human) (UniProt Q9Y6M4) in the same assay as above. Details: compound 0.5 µM; ATP 10 µM.

Compound | residual activity [%]
O=c1c(-c2ccc(F)cc2)c(-c2ccncc2)[nH]n1-c1ccc(Cl)cc1 | 102
CCCCc1c(-c2ccc(O)cc2)[nH]c2nccnc12 | 82.3
O=S(=O)(NCCNC/C=C/c1ccc(Br)cc1)c1cccc2cnccc12 | 93.3
Nc1ncnc2c1cnn2-c1ccccc1 | 93.4

These molecules were tested against CAMK1D (human) (UniProt Q8IU85) in the same assay as above. Details: compound 0.5 µM; ATP 10 µM.
CAMK1D (human), sequence (Q8IU85 whole entry, looked up): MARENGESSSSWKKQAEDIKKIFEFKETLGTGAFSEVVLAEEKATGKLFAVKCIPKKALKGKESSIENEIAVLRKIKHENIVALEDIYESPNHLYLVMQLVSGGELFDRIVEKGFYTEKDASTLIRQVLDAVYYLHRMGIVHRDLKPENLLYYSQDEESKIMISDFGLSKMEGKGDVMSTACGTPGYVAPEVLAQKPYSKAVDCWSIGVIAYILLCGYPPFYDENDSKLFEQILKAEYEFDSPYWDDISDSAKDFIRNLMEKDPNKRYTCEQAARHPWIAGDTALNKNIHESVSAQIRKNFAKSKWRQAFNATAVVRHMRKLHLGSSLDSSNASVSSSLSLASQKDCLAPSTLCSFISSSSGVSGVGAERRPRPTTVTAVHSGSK

Compound | residual activity [%]
O=c1c(-c2ccc(F)cc2)c(-c2ccncc2)[nH]n1-c1ccc(Cl)cc1 | 72.2
CCCCc1c(-c2ccc(O)cc2)[nH]c2nccnc12 | 96.9
O=S(=O)(NCCNC/C=C/c1ccc(Br)cc1)c1cccc2cnccc12 | 85.5
Nc1ncnc2c1cnn2-c1ccccc1 | 95.6

The molecules below were run against NTRK2 (human) (UniProt Q16620) in the same assay as above. Details: compound 0.5 µM; ATP 10 µM.
NTRK2 (human), sequence (Q16620 whole entry, looked up): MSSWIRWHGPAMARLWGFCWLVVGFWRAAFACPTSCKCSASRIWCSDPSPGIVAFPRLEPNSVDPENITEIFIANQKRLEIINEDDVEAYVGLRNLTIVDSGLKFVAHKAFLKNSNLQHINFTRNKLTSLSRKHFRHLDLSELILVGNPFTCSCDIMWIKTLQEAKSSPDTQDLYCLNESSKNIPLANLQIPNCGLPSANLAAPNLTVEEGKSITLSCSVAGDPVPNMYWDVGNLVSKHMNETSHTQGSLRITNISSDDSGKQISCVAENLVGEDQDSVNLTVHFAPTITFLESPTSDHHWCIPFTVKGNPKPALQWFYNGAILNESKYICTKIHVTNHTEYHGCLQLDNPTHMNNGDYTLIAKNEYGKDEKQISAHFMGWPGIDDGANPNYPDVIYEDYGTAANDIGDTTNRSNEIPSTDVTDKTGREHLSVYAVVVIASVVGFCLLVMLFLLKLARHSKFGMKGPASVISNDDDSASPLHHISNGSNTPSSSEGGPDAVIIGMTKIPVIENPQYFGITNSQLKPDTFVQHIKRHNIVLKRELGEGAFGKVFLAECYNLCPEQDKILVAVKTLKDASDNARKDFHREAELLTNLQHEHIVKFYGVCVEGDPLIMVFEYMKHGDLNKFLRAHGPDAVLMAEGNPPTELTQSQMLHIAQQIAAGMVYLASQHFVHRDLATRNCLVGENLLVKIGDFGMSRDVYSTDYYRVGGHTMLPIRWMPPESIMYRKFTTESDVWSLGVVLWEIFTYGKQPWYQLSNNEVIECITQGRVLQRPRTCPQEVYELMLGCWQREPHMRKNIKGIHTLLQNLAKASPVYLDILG

Compound | residual activity [%]
O=c1c(-c2ccc(F)cc2)c(-c2ccncc2)[nH]n1-c1ccc(Cl)cc1 | 88.5
CCCCc1c(-c2ccc(O)cc2)[nH]c2nccnc12 | 73.7
O=S(=O)(NCCNC/C=C/c1ccc(Br)cc1)c1cccc2cnccc12 | 95.1
Nc1ncnc2c1cnn2-c1ccccc1 | 88.7

These molecules were tested against PIM2 (human) (UniProt Q9P1W9) in the same assay as above. Details: compound 0.5 µM; ATP 10 µM.

Compound | residual activity [%]
O=c1c(-c2ccc(F)cc2)c(-c2ccncc2)[nH]n1-c1ccc(Cl)cc1 | 114
CCCCc1c(-c2ccc(O)cc2)[nH]c2nccnc12 | 121
O=S(=O)(NCCNC/C=C/c1ccc(Br)cc1)c1cccc2cnccc12 | 104
Nc1ncnc2c1cnn2-c1ccccc1 | 98.2

The molecules below were run against WNK3 (human) (UniProt Q9BYP7) in the same assay as above. Details: compound 0.5 µM; ATP 10 µM.
WNK3 (human), sequence (Q9BYP7 whole entry, looked up): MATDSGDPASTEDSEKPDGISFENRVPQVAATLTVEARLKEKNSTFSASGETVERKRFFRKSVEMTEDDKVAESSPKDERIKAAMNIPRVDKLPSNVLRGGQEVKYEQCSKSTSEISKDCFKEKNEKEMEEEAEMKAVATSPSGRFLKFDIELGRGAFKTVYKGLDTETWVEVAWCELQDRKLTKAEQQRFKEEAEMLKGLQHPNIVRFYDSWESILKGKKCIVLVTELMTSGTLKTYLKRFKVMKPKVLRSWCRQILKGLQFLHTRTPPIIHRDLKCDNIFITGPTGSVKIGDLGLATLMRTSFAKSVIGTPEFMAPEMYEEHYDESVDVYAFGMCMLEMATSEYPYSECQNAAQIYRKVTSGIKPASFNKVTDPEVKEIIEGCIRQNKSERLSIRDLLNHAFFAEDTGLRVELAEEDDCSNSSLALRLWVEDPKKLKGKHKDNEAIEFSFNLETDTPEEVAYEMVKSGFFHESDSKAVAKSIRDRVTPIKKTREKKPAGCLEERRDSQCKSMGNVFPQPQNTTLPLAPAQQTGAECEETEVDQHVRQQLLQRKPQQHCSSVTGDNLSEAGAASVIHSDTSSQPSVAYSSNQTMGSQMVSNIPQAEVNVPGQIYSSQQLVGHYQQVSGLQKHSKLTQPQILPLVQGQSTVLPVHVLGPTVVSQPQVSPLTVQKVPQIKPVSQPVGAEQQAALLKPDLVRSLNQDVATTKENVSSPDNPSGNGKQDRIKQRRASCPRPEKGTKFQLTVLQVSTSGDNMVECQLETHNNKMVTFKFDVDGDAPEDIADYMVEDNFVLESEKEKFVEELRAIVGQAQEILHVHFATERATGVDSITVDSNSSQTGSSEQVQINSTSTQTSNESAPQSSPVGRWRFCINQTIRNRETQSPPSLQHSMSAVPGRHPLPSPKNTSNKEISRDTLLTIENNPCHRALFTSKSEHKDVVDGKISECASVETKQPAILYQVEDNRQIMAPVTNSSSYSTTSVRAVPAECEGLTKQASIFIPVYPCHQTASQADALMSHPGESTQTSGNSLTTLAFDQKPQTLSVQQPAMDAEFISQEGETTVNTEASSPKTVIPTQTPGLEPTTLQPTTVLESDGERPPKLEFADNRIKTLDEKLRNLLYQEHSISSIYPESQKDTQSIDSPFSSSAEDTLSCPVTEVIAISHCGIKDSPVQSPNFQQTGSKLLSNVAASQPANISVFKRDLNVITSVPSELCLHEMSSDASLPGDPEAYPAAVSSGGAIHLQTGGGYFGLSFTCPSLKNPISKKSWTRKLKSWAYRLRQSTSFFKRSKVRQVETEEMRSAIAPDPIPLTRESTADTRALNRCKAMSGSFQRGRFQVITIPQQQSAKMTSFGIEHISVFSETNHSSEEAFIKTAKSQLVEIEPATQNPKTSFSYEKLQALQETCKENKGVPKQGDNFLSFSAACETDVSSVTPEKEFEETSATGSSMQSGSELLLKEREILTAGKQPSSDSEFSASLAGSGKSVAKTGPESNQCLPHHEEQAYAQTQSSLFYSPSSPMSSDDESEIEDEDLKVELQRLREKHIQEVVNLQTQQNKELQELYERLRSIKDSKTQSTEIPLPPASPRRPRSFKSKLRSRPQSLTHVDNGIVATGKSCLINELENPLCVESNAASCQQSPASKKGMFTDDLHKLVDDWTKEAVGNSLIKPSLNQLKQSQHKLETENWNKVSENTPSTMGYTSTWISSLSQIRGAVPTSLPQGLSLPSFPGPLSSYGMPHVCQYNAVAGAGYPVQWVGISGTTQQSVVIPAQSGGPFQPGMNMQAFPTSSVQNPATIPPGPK

Compound | residual activity [%]
O=c1c(-c2ccc(F)cc2)c(-c2ccncc2)[nH]n1-c1ccc(Cl)cc1 | 93.6
CCCCc1c(-c2ccc(O)cc2)[nH]c2nccnc12 | 90.3
O=S(=O)(NCCNC/C=C/c1ccc(Br)cc1)c1cccc2cnccc12 | 93.1
Nc1ncnc2c1cnn2-c1ccccc1 | 97.2

Each molecule was assayed against STK11 (human) (UniProt Q15831) in the same assay as above. Details: compound 0.5 µM; ATP 10 µM.

Compound | residual activity [%]
O=c1c(-c2ccc(F)cc2)c(-c2ccncc2)[nH]n1-c1ccc(Cl)cc1 | 98.8
CCCCc1c(-c2ccc(O)cc2)[nH]c2nccnc12 | 33.5
O=S(=O)(NCCNC/C=C/c1ccc(Br)cc1)c1cccc2cnccc12 | 102
Nc1ncnc2c1cnn2-c1ccccc1 | 93.9

These molecules were tested against RPS6KA6 KD1 KD2 (human) (UniProt Q9UK32) in the same assay as above. Details: compound 0.5 µM; ATP 10 µM.

Compound | residual activity [%]
O=c1c(-c2ccc(F)cc2)c(-c2ccncc2)[nH]n1-c1ccc(Cl)cc1 | 90.3
CCCCc1c(-c2ccc(O)cc2)[nH]c2nccnc12 | 72.7
O=S(=O)(NCCNC/C=C/c1ccc(Br)cc1)c1cccc2cnccc12 | 71.8
Nc1ncnc2c1cnn2-c1ccccc1 | 94.1

These molecules were tested against CDK7 CCNH MNAT1 (human) (UniProt P50613+P51948+P51946) in the same assay as above. Details: compound 0.5 µM; ATP 10 µM.

Compound | residual activity [%]
O=c1c(-c2ccc(F)cc2)c(-c2ccncc2)[nH]n1-c1ccc(Cl)cc1 | 97.4
CCCCc1c(-c2ccc(O)cc2)[nH]c2nccnc12 | 88.2
O=S(=O)(NCCNC/C=C/c1ccc(Br)cc1)c1cccc2cnccc12 | 82.8
Nc1ncnc2c1cnn2-c1ccccc1 | 102

The molecules below were run against CDK2 CCNE1 (human) (UniProt P24941+P24864) in the same assay as above. Details: compound 0.5 µM; ATP 10 µM.

Compound | residual activity [%]
O=c1c(-c2ccc(F)cc2)c(-c2ccncc2)[nH]n1-c1ccc(Cl)cc1 | 89.1
CCCCc1c(-c2ccc(O)cc2)[nH]c2nccnc12 | 29.9
O=S(=O)(NCCNC/C=C/c1ccc(Br)cc1)c1cccc2cnccc12 | 99.3
Nc1ncnc2c1cnn2-c1ccccc1 | 93.9

These molecules were tested against SRC (human) (UniProt P12931) in the same assay as above. Details: compound 0.5 µM; ATP 10 µM.

Compound | residual activity [%]
CN[C@@H]1C[C@H]2O[C@@](C)([C@@H]1OC)n1c3ccccc3c3c4c(c5c6ccccc6n2c5c31)C(=O)NC4 | 1.46
O=c1c(-c2ccc(F)cc2)c(-c2ccncc2)[nH]n1-c1ccc(Cl)cc1 | 91.6
CCCCc1c(-c2ccc(O)cc2)[nH]c2nccnc12 | 65.2
O=S(=O)(NCCNC/C=C/c1ccc(Br)cc1)c1cccc2cnccc12 | 90.1
Nc1ncnc2c1cnn2-c1ccccc1 | 96.9

Each molecule was assayed against CDK4 CCND3 (human) (UniProt P30281+P11802) in the same assay as above. Details: compound 0.5 µM; ATP 10 µM.

Compound | residual activity [%]
O=c1c(-c2ccc(F)cc2)c(-c2ccncc2)[nH]n1-c1ccc(Cl)cc1 | 101
CCCCc1c(-c2ccc(O)cc2)[nH]c2nccnc12 | 71
O=S(=O)(NCCNC/C=C/c1ccc(Br)cc1)c1cccc2cnccc12 | 106
Nc1ncnc2c1cnn2-c1ccccc1 | 94
